14 compounds from patent publication US20230025510A1, “BIARYL ETHER-TYPE QUINAZOLINE DERIVATIVES” (DAIICHI SANKYO COMPANY, LIMITED, priority 2018, published 2023) can be followed below.

Common to all, as to type: cell-based
Test [1] deals with Ba/F3-EGFR ins. ASV cells. As to the kind of experiment: Cell proliferation suppression test (CellTiter-Glo, GI50), Ba/F3-EGFR ins. ASV. The conditions noted are these: Mus musculus, 72 h, 3 days, N=4. The procedure: (§1) Cell proliferation suppression test Ba/F3-Mock, Ba/F3-EGFR WT, Ba/F3-EGFR ins. ASV, and Ba/F3-EGFR ins. SVD cell lines were cultured based on a culture medium of 10% FBS-containing RPMI 1640 supplemented with 1.5 ug/mL puromycin, and 5 ng/mL IL-3 and 100 ng/mL of EGF were further added to the culture solution for Ba/F3-Mock and Ba/F3-EGFR WT, respectively. The cells were cultured in a CO2 incubator set at 37° C., 5% CO2. Specimens prepared by dilution were seeded into 384-well tissue culture plates with Echo555 (Labcyte Inc.), and the cells were seeded thereto at 400 cells/well for Ba/F3-Mock, Ba/F3-EGFR WT, and Ba/F3-EGFR ins. SVD and at 200 cells/well for Ba/F3-EGFR ins. ASV (day 0), then they were cultured for an additional 3 days. On the day of the compound addition (day 0) and 3 days after the compound addition (day 3), ATP quantity was measured with CellTiter-Glo (registered trademark) 2.0 (Promega Corporation.), and used as an indicator of cell quantity (N=4). In the test, puromycin-free culture medium was used. Concentrations at which cell proliferation from day 0 to day 3 was inhibited by 50% (GIso) were calculated with EXCEL.

Test [2] relates to Ba/F3-EGFR ins. SVD cells. As to the kind of experiment: Cell proliferation suppression test (CellTiter-Glo, GI50), Ba/F3-EGFR ins. SVD. The conditions noted are these: Mus musculus, 72 h, 3 days, N=4. The procedure:
as §1

For another test, the system named is Ba/F3-EGFR WT cells. As to the kind of experiment: Cell proliferation suppression test (CellTiter-Glo, GI50), Ba/F3-EGFR WT. The conditions noted are these: Mus musculus, 72 h, 100 ng/mL EGF, 3 days, N=4. The method, then:
as §1

The test system of another test is Ba/F3-Mock cells. As to the kind of experiment: Cell proliferation suppression test (CellTiter-Glo, GI50), Ba/F3-Mock. The conditions noted are these: Mus musculus, BaF3, 72 h, 5 ng/mL IL-3, 3 days, N=4. The procedure:
as §1

Bounds are passed on as bounds.

Turning to `COc1cc2ncnc(Nc3ccc(Oc4nc(CC(=O)NC(C)(C)C)cs4)cc3F)c2cc1NC(=O)/C=C/CN1CC[C@@H](OC)C1` [Example 61, (2E)-N-{4-[4-({4-[2-(tert-Butylamino)-2-oxoethyl]-1,3-thiazol-2-yl}oxy)-2-fluoroanilino]-7-methoxyquinazolin-6-yl}-4-[(3R)-3-methoxypyrrolidin-1-yl]but-2-enamide], the GI50 in test [1] came to 25.6 nM; in test [2], 88.1 nM; in the test on Ba/F3-EGFR WT cells, 731 nM; in the test on Ba/F3-Mock cells it was 3120 nM.

Turning to `C=CC(=O)N1CCC(Oc2cc3c(Nc4ccc(Oc5nc(-c6cnc(C)nc6)cs5)cc4F)ncnc3cc2OC)CC1` [Example 36, 1-(4-{[4-(2-Fluoro-4-{[4-(2-methylpyrimidin-5-yl)-1,3-thiazol-2-yl]oxy}anilino)-7-methoxyquinazolin-6-yl]oxy}piperidin-1-yl)prop-2-en-1-one], the GI50 in test [1] was 12 nM; in test [2], 10 nM; in the test on Ba/F3-EGFR WT cells, 377 nM; in the test with Ba/F3-Mock cells, above 10000 nM.

Turning to `C=CC(=O)N1CCC(Oc2cc3c(Nc4ccc(Oc5nc(-c6cnc(C)c(Cl)c6)cs5)cc4F)ncnc3cc2OC)CC1` [Example 12, 1-(4-{[4-(4-{[4-(5-Chloro-6-methylpyridin-3-yl)-1,3-thiazol-2-yl]oxy}-2-fluoroanilino)-7-methoxyquinazolin-6-yl]oxy}piperidin-1-yl)prop-2-en-1-one], the GI50 was 44.8 nM in test [1], 29.8 nM in test [2], 646 nM in the test with Ba/F3-EGFR WT cells and above 10000 nM in the test on Ba/F3-Mock cells.

With `C=CC(=O)N1CCC(Oc2cc3c(Nc4ccc(Oc5nc(-c6cncc(F)c6)cs5)cc4F)ncnc3cc2OC)CC1` [Example 38, 1-(4-{[4-(2-Fluoro-4-{[4-(5-fluoropyridin-3-yl)-1,3-thiazol-2-yl]oxy}anilino)-7-methoxyquinazolin-6-yl]oxy}piperidin-1-yl)prop-2-en-1-one], the GI50 in test [1] is 17 nM; in test [2], 18.3 nM; with Ba/F3-EGFR WT cells, 174 nM; in the test with Ba/F3-Mock cells, above 10000 nM.

As to `CCOc1cc2ncnc(Nc3ccc(Oc4cccc(-c5nnc(C)o5)c4)cc3F)c2cc1NC(=O)/C=C/CN(C)C` [Example 40, (2E)-4-(Dimethylamino)-N-(7-ethoxy-4-{2-fluoro-4-[3-(5-methyl-1,3,4-oxadiazol-2-yl)phenoxy]anilino}quinazolin-6-yl)but-2-enamide], the GI50 came to 5.5 nM in test [1], 32.9 nM in test [2], 80.1 nM in the test on Ba/F3-EGFR WT cells and 765 nM in the test on Ba/F3-Mock cells.

For `C=CC(=O)N1CCC(Oc2cc3c(Nc4ccc(Oc5ccn(-c6cnc(OC)nc6)n5)cc4F)ncnc3cc2OC)CC1` [Example 14, 1-(4-{[4-(2-Fluoro-4-{[1-(2-methoxypyrimidin-5-yl)-1H-pyrazol-3-yl]oxy}anilino)-7-methoxyquinazolin-6-yl]oxy}piperidin-1-yl)prop-2-en-1-one], the GI50 in test [1] amounted to 13.7 nM; in test [2], 13.5 nM; in the test with Ba/F3-EGFR WT cells it was 429 nM; in the test with Ba/F3-Mock cells, 5950 nM.

For the compound `CCc1nnc(-c2cccc(Oc3ccc(Nc4ncnc5cc(OC)c(NC(=O)/C=C/CN(C)C)cc45)c(F)c3)c2)o1` [Example 41, (2E)-4-(Dimethylamino)-N-(4-{4-[3-(5-ethyl-1,3,4-oxadiazol-2-yl)phenoxy]-2-fluoroanilino)-7-methoxyquinazolin-6-yl)but-2-enamide], the GI50 came to 8.2 nM in test [1], 27 nM in test [2], 114 nM in the test on Ba/F3-EGFR WT cells and 841 nM with Ba/F3-Mock cells.

`C=CC(=O)N1CCC(Oc2cc3c(Nc4ccc(Oc5ccn(C(=O)N[C@H](C)C(F)(F)F)n5)cc4F)ncnc3cc2OC)CC1` [Example 24, 3-{3-Fluoro-4-[(7-methoxy-6-{[1-(prop-2-enoyl)piperidin-4-yl]oxy}quinazolin-4-yl)amino]phenoxy}-N-[(2R)-1,1,1-trifluoropropan-2-yl]-1H-pyrazole-1-carboxamide]: the GI50 came out at 11.8 nM in test [1], 9.9 nM in test [2], 42.4 nM with Ba/F3-EGFR WT cells and 6470 nM in the test on Ba/F3-Mock cells.

In the case of `C=CC(=O)N1CCC(Oc2cc3c(Nc4ccc(Oc5nc(-c6cnc(C)c(F)c6)cs5)cc4F)ncnc3cc2OC)CC1` [Example 11, 1-(4-{[4-(2-Fluoro-4-{[4-(5-fluoro-6-methylpyridin-3-yl)-1,3-thiazol-2-yl]oxy}anilino)-7-methoxyquinazolin-6-yl]oxy}piperidin-1-yl)prop-2-en-1-one], the GI50 in test [1] is 11.3 nM; in test [2], 12.5 nM; with Ba/F3-EGFR WT cells, 290 nM; in the test on Ba/F3-Mock cells it was above 10000 nM.

In the case of `CCOc1cc2ncnc(Nc3ccc(Oc4cccc(-c5nnc(C6CC6)o5)c4)cc3F)c2cc1NC(=O)/C=C/CN(C)C` [Example 51, (2E)-N-(4-{4-[3-(5-Cyclopropyl-1,3,4-oxadiazol-2-yl)phenoxy]-2-fluoroanilino}-7-ethoxyquinazolin-6-yl)-4-(dimethylamino)but-2-enamide], the GI50 in test [1] was determined as 11.8 nM; in test [2] it was 20.5 nM; with Ba/F3-EGFR WT cells it was 104 nM; with Ba/F3-Mock cells it was 806 nM.

With `C=CC(=O)N1CCC(Oc2cc3c(Nc4ccc(Oc5ccn(-c6cnc(C)c(F)c6)n5)cc4F)ncnc3cc2OC)CC1` [Example 27, 1-(4-{[4-(2-Fluoro-4-{[1-(5-fluoro-6-methylpyridin-3-yl)-1H-pyrazol-3-yl]oxy}anilino)-7-methoxyquinazolin-6-yl]oxy}piperidin-1-yl)prop-2-en-1-one], the GI50 in test [1] was 11.6 nM; in test [2], 11.1 nM; in the test on Ba/F3-EGFR WT cells, 249 nM; with Ba/F3-Mock cells it was 8690 nM.

In the case of `C=CC(=O)N1CCC(Oc2cc3c(Nc4ccc(Oc5cccc(-c6nnc(C)o6)c5)cc4F)ncnc3cc2OCF)CC1` [Example 19, 1-(4-{[7-(Fluoromethoxy)-4-{2-fluoro-4-[3-(5-methyl-1,3,4-oxadiazol-2-yl)phenoxy]anilino}quinazolin-6-yl]oxy}piperidin-1-yl)prop-2-en-1-one], the GI50 in test [1] was 23.5 nM; in test [2], 20.2 nM; in the test with Ba/F3-EGFR WT cells, 386 nM; in the test on Ba/F3-Mock cells, 4920 nM.

For the compound `COc1cc2ncnc(Nc3ccc(Oc4nn(CC(=O)NC(C)(C)C)cc4F)cc3F)c2cc1NC(=O)/C=C/CN1CC(OC)C1` [Example 60, (2E)-N-{4-[4-({1-[2-(tert-Butylamino)-2-oxoethyl]-4-fluoro-1H-pyrazol-3-yl}oxy)-2-fluoroanilino]-7-methoxyquinazolin-6-yl}-4-(3-methoxyazetidin-1-yl)but-2-enamide], the GI50 worked out at 11.9 nM in test [1], 10.7 nM in test [2], 497 nM with Ba/F3-EGFR WT cells and 6030 nM in the test on Ba/F3-Mock cells.

As for `[2H]C([2H])([2H])Oc1cc2ncnc(Nc3ccc(Oc4ccn(C(=O)NC(C)(C)C)n4)cc3F)c2cc1OC1CCN(C(=O)C=C)CC1` [Example 20, N-tert-Butyl-3-{3-fluoro-4-[(7-[(^2H3)methyloxy]-6-{[1-(prop-2-enoyl)piperidin-4-yl]oxy}quinazolin-4-yl)amino]phenoxy}-1H-pyrazole-1-carboxamide], the GI50 was 18.6 nM in test [1], 9 nM in test [2], 171 nM with Ba/F3-EGFR WT cells and above 10000 nM in the test with Ba/F3-Mock cells.
